Here are results for one molecule from PubChem BioAssay AID180 (DTP/NCI, 2004).

The subject of this experiment is BDF1 mice, Adenocarcinoma 755 s.c., tumor weight T/C. Kind of experiment: NCI In Vivo Anticancer Drug Screen. Data for tumor model Adenocarcinoma 755 (subcutaneous) in B6D2F1 (BDF1) mice. The conditions noted are these: endpoint: mean tumor weight, schedule: Q01DX011 (sc), vehicle: steriod suspending solution, higher = larger tumour. In a few lines: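 Compound activity was tested in mice carrying transplanted tumors. Survival or tumor size was measured, and each value is the treated-group measurement divided by that of the vehicle-treated control group (T/C).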

With `C[C@H]1C[C@@H]2[C@H](C(=O)C[C@@]3(C)[C@H]2CC[C@]3(O)C(=O)CO)[C@@]2(C)C=CC(=O)C=C12`, the T/C runs as follows: (dose: 50.0 mg/kg/injection) 30 % of control; (dose: 100.0 mg/kg/injection) 23 % of control.

As a reminder, the T/C is the result in the treated group divided by that in the control group, in per cent.
